Measurements taken from the supplement of paper PMC10307832.

What was measured:
Assay in all cases: relative viability (nuclei count vs DMSO), 5 days (fraction); higher = more cells survive
LOU-NH91 = test system: LOU-NH91
Method in brief: (§1)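 Relative viability equals treated-well nuclei counts divided by vehicle-well nuclei counts. Counts came from 4× images of lung cancer cell lines grown in 1536-well plates for 5 days after pin-tool dosing on the day after seeding. Dosing used one drug alone or a fixed anchor-drug dose plus five library-drug doses (not always all listed) in √10 steps, and values are medians of duplicate plates.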

NCI-H647 = test system: NCI-H647
Method in brief: as §1

SK-LU-1 = test system: SK-LU-1
Method in brief: as §1

LU99A = test system: LU99A
Method in brief: as §1

LK-2 = test system: LK-2
Method in brief: as §1

EKVX = test system: EKVX
Method in brief: as §1

BEN = test system: BEN
Method in brief: as §1

COR-L 105 = test system: COR-L 105
Method in brief: as §1

EMC-BAC-2 = test system: EMC-BAC-2
Method in brief: as §1

NCI-H1734 = test system: NCI-H1734
Method in brief: as §1

NCI-H1437 = test system: NCI-H1437
Method in brief: as §1

HCC-78 = test system: HCC-78
Method in brief: as §1

NCI-H2085 = test system: NCI-H2085
Method in brief: as §1

NCI-H2023 = test system: NCI-H2023
Method in brief: as §1

UMC-11 = test system: UMC-11
Method in brief: as §1

EPLC-272H = test system: EPLC-272H
Method in brief: as §1

NCI-H1792 = test system: NCI-H1792
Method in brief: as §1

HCC-827 = test system: HCC-827
Method in brief: as §1

NCI-H1650 = test system: NCI-H1650
Method in brief: as §1

C=C1C(=O)O[C@@H](CCCCCCCC)[C@@H]1C(=O)O [C-75] + CC1(C)CCC(c2ccc(Cl)cc2)=C(CN2CCN(c3ccc(C(=O)NS(=O)(=O)c4ccc(N[C@H](CCN5CCOCC5)CSc5ccccc5)c(S(=O)(=O)C(F)(F)F)c4)cc3)CC2)C1 [Navitoclax] (partner 0.5 µM)
relative viability (LOU-NH91; first compound 0.08 µM): 0.756
relative viability (LOU-NH91; first compound 0.253 µM): 0.679
relative viability (LOU-NH91; first compound 0.8 µM): 0.643
relative viability (LOU-NH91; first compound 2.53 µM): 0.55
relative viability (LOU-NH91; first compound 8 µM): 0.776
relative viability (NCI-H647; first compound 0.08 µM): 1.12
relative viability (NCI-H647; first compound 0.253 µM): 1.05
relative viability (NCI-H647; first compound 2.53 µM): 0.875
relative viability (NCI-H647; first compound 8 µM): 0.857
relative viability (SK-LU-1; first compound 0.08 µM): 0.932
relative viability (SK-LU-1; first compound 0.253 µM): 0.85
relative viability (SK-LU-1; first compound 0.8 µM): 0.763
relative viability (SK-LU-1; first compound 2.53 µM): 0.709
relative viability (SK-LU-1; first compound 8 µM): 0.751
relative viability (LU99A; first compound 0.08 µM): 0.795
relative viability (LU99A; first compound 0.253 µM): 0.845
relative viability (LU99A; first compound 0.8 µM): 0.695
relative viability (LU99A; first compound 2.53 µM): 0.588
relative viability (LU99A; first compound 8 µM): 0.594
relative viability (LK-2; first compound 0.08 µM): 0.819
relative viability (LK-2; first compound 0.253 µM): 0.883
relative viability (LK-2; first compound 0.8 µM): 1.02
relative viability (LK-2; first compound 2.53 µM): 0.769
relative viability (LK-2; first compound 8 µM): 0.648
relative viability (EKVX; first compound 0.08 µM): 0.944
relative viability (EKVX; first compound 0.253 µM): 0.893
relative viability (EKVX; first compound 0.8 µM): 0.831
relative viability (EKVX; first compound 2.53 µM): 0.864
relative viability (EKVX; first compound 8 µM): 1.03
relative viability (BEN; first compound 0.08 µM): 0.0695
relative viability (BEN; first compound 0.253 µM): 0.0673
relative viability (BEN; first compound 0.8 µM): 0.0656
relative viability (BEN; first compound 2.53 µM): 0.0589
relative viability (BEN; first compound 8 µM): 0.0596
relative viability (COR-L 105; first compound 0.08 µM): 0.81
relative viability (COR-L 105; first compound 0.253 µM): 0.828
relative viability (COR-L 105; first compound 0.8 µM): 0.573
relative viability (COR-L 105; first compound 2.53 µM): 0.788
relative viability (COR-L 105; first compound 8 µM): 0.562
relative viability (EMC-BAC-2; first compound 0.08 µM): 1.13
relative viability (EMC-BAC-2; first compound 0.253 µM): 1.18
relative viability (EMC-BAC-2; first compound 0.8 µM): 1.15
relative viability (EMC-BAC-2; first compound 2.53 µM): 1.07
relative viability (EMC-BAC-2; first compound 8 µM): 1.18
relative viability (NCI-H1734; first compound 0.08 µM): 0.828
relative viability (NCI-H1734; first compound 0.253 µM): 0.778
relative viability (NCI-H1734; first compound 0.8 µM): 0.815
relative viability (NCI-H1734; first compound 2.53 µM): 0.629
relative viability (NCI-H1734; first compound 8 µM): 0.754
relative viability (NCI-H1437; first compound 0.08 µM): 1.06
relative viability (NCI-H1437; first compound 0.253 µM): 1.13
relative viability (NCI-H1437; first compound 0.8 µM): 1.09
relative viability (NCI-H1437; first compound 2.53 µM): 1.09
relative viability (NCI-H1437; first compound 8 µM): 1.08
relative viability (HCC-78; first compound 0.08 µM): 0.791
relative viability (HCC-78; first compound 0.253 µM): 0.834
relative viability (HCC-78; first compound 0.8 µM): 0.75
relative viability (HCC-78; first compound 2.53 µM): 0.708
relative viability (HCC-78; first compound 8 µM): 0.864
relative viability (NCI-H2085; first compound 0.08 µM): 1.15
relative viability (NCI-H2085; first compound 0.253 µM): 1.2
relative viability (NCI-H2085; first compound 0.8 µM): 1.07
relative viability (NCI-H2085; first compound 2.53 µM): 1.11
relative viability (NCI-H2085; first compound 8 µM): 1.08
relative viability (NCI-H2023; first compound 0.08 µM): 0.971
relative viability (NCI-H2023; first compound 0.253 µM): 1.04
relative viability (NCI-H2023; first compound 0.8 µM): 0.959
relative viability (NCI-H2023; first compound 2.53 µM): 0.659
relative viability (NCI-H2023; first compound 8 µM): 0.945
relative viability (UMC-11; first compound 0.08 µM): 0.3
relative viability (UMC-11; first compound 0.253 µM): 0.299
relative viability (UMC-11; first compound 0.8 µM): 0.292
relative viability (UMC-11; first compound 2.53 µM): 0.287
relative viability (UMC-11; first compound 8 µM): 0.239
relative viability (EPLC-272H; first compound 0.08 µM): 1.22
relative viability (EPLC-272H; first compound 0.253 µM): 1.03
relative viability (EPLC-272H; first compound 0.8 µM): 1.21
relative viability (EPLC-272H; first compound 2.53 µM): 0.856
relative viability (EPLC-272H; first compound 8 µM): 0.961
relative viability (NCI-H1792; first compound 0.08 µM): 0.595
relative viability (NCI-H1792; first compound 0.253 µM): 0.575
relative viability (NCI-H1792; first compound 0.8 µM): 0.46
relative viability (NCI-H1792; first compound 2.53 µM): 0.303
relative viability (NCI-H1792; first compound 8 µM): 0.59
relative viability (HCC-827; first compound 0.08 µM): 1.02
relative viability (HCC-827; first compound 0.253 µM): 0.884
relative viability (HCC-827; first compound 0.8 µM): 0.952
relative viability (HCC-827; first compound 2.53 µM): 0.985
relative viability (HCC-827; first compound 8 µM): 1.04
relative viability (NCI-H1650; first compound 0.08 µM): 1.22
relative viability (NCI-H1650; first compound 0.253 µM): 1.36
relative viability (NCI-H1650; first compound 0.8 µM): 1.22
relative viability (NCI-H1650; first compound 2.53 µM): 1.36
relative viability (NCI-H1650; first compound 8 µM): 0.97
